Measurements reported in patent US20250082766A1, “TREATMENT OF BRAIN TUMORS BY TARGETING THE CHOLESTEROL PATHWAY IN ASTROCYES” (Ramot at Tel-Aviv University Ltd., priority 2022, published 2025).
Entries after “also recorded” stand apart in the source; their conditions may differ.

Legend:
[1] = molecular target: cholesterol transporter ABCA1 (Homo sapiens, UniProt O95477); conditions: cited from earlier work
GL261-Luc2 glioma (GBM) = test: GL261-Luc2 implanted mice treated with probucol, TMZ or both; format: in vivo, mouse; conditions: FIGS. 20A-C
Procedure: WT mice were IC implanted with GL261-Luc2 cells. […] (FIG. 20A) Tumor growth curve as determined by IVIS, (FIG. 20B) mice weight loss, and (FIG. 20C) Kaplan-Meier curves assess overall survival. p-value by Two-way ANOVA. Data represent Mean±SEM, 8 mice/group.
For intracranial mouse glioma, mice were anesthetized, positioned in a Stereotaxic Alignment System, and injected with 1.5×10^4 GL261 or CT-2A cells in 2 μl of DMEM. Injections were made to the right frontal lobe, approximately 2.5 mm lateral and 0.1 mm caudal from bregma at a depth of 3 mm. In-vivo bioluminescence imaging, following XenoLight D-luciferin Potassium Salt administration (150 mg/kg) i.p. administration, was determined using IVIS Spectrum system (PerkinElmer). Ganciclovir (GCV, Cymevene, Roche #SAP-10051872; 25 mg/kg), Diphtheria-toxin (DT, Sigma-Aldrich, #D0564; 1100 ng/mice), or vehicle control (PBS) were administered daily following tumor establishment (day 10), as previously described (Mayo, L., et al. Nat Med (2014) 20: 1147-1156). CD8^+ T cell depletion was performed using an anti-CD8 monoclonal antibody (53.6-7, Bioxcell) or an isotype control monoclonal antibody (2A3, Bioxcell), as previously described (Takenaka, M. C. et al. Control of tumor-associated macrophages and T cells in glioblastoma via AHR and CD39. Nat Neurosci 22, 729-740 (2019)). GBM-bearing mice were intraperitoneally injected (0.1 mg/mouse) with an anti-CD8 or an isotype control mAbs, 1 day before, and 7 days after, GCV administration. CD8 T-cell depletion was validated by FACS analysis using a Sony SH800 FACS instrument (Sony Biotechnology). Data analysis was performed using FlowJo v10 (TreeStar, USA). The following reagents were used for analysis: anti-CD45 (1:100; 30-F11, Biolegend, #103106), anti-CD3□ (1:50; 145-2C11, Biolegend #100335), and anti-CD8a (1:100; 53-6.7, Biolegend, #100765).

GL261 glioma (GBM) = test: Primary GBM model: GL261 intracranially implanted mice treated with Probucol; format: in vivo, mouse; conditions: for tumor growth (IVIS): Probucol 30 mg/kg daily from day 10 (quarter of HED) vs vehicle, FIG. 16B
Procedure: (FIG. 16A) Illustration of the experimental design for primary and recurrent GBM models. (FIGS. 16B-D) WT mice were intracranially (IC) implanted with GL261 cells. Tumor-bearing mice were treated daily, starting at day 10, with Probucol (30 mg/kg) or vehicle. (FIG. 16B) Tumor growth curve as determined by IVIS, (FIG. 16C) mice weight loss, and (FIG. 16D) Kaplan-Meier curves assess overall survival. p-value by Two-way ANOVA. Data represent Mean±SEM, 8 mice/group. (FIG. 16E) Illustration of the predicted effects of probucol or glyburide in the different models/disease stages.
For intracranial mouse glioma, mice were anesthetized, positioned in a Stereotaxic Alignment System, and injected with 1.5×10^4 GL261 or CT-2A cells in 2 μl of DMEM. Injections were made to the right frontal lobe, approximately 2.5 mm lateral and 0.1 mm caudal from bregma at a depth of 3 mm. In-vivo bioluminescence imaging, following XenoLight D-luciferin Potassium Salt administration (150 mg/kg) i.p. administration, was determined using IVIS Spectrum system (PerkinElmer). Ganciclovir (GCV, Cymevene, Roche #SAP-10051872; 25 mg/kg), Diphtheria-toxin (DT, Sigma-Aldrich, #D0564; 1100 ng/mice), or vehicle control (PBS) were administered daily following tumor establishment (day 10), as previously described (Mayo, L., et al. Nat Med (2014) 20: 1147-1156). CD8^+ T cell depletion was performed using an anti-CD8 monoclonal antibody ([…], Bioxcell) or an isotype control monoclonal antibody (2A3, Bioxcell), as previously described (Takenaka, M. C. et al. Control of tumor-associated macrophages and T cells in glioblastoma via AHR and CD39. Nat Neurosci 22, 729-740 (2019)). GBM-bearing mice were intraperitoneally injected (0.1 mg/mouse) with an anti-CD8 or an isotype control mAbs, 1 day before, and 7 days after, GCV administration. CD8 T-cell depletion was validated by FACS analysis using a Sony SH800 FACS instrument (Sony Biotechnology). Data analysis was performed using FlowJo v10 (TreeStar, USA). The following reagents were used for analysis: anti-CD45 (1:100; 30-F11, Biolegend, #103106), anti-CD3[…] (1:50; 145-2C11, Biolegend #100335), and anti-CD8a (1:100; 53-6.7, Biolegend, #100765).
To investigate this hypothesis, C57Bl/6 mice are implanted with GFP^+ luciferase-expressing glioma cells (GL261 or CT-2A), using two subtype models—primary or recurrent GBM/brain tumor resection (as illustrated in FIG. 16A), and are treated daily with probucol, glyburide, or vehicle control, with or without a potent statin (e.g., simvastatin as shown in FIG. 15A). The dosage of the different drugs is optimized based on FDA guidelines for conversions from human-accepted dosages (Table 5 below).
In the primary GBM model (pGBM)—10 days after tumor implantation, the mice are treated with cholesterol-lowering drugs (FIG. 16A). In the recurrent GBM model (rGBM), 12-14 days after inoculation of the mice with the tumor cells, the visible tumor(s) are surgically removed, based on GFP expression, under a stereoscope. The mice are then allowed to recover for a week and then are treated with cholesterol-lowering drugs (FIG. 16A). Of note, tumor formation or recurrence is monitored by bioluminescence (BLI) signals from the tumor cells on in-vivo imaging system (IVIS) spectrum and quantified with Living Image software. Mice are monitored for tumor growth, peritumoral brain edema formation, and mouse survival until the experimental endpoint (extreme lethargy or body weight reduction of greater than 20%), or are euthanized seven days after treatment with the cholesterol-lowering drugs to assess tumor burden, angiogenesis, BBB stability, and immunomodulatory activity in-situ. Tumor volume is evaluated in-vivo by determining tumor BLI, and by histopathology analysis postmortem. Peritumoral brain edema is evaluated in-vivo using IVISense™ Edema (Superhance™ 680) fluorescent probe. […]

primary astrocytes = test: Cell viability assay (Annexin V/DAPI FACS) of primary astrocytes; format: cell-based, mouse; set-up: dose or concentration left out as unconfirmed; conditions: lovastatin, 3 day treatment; FIGS. 11G-H
Source text: FIGS. 11A-K illustrate that astrocyte-derived cholesterol supports glioma survival. (FIG. 11A) Representative immunofluorescence images of cholesterol accumulation (Filipin III, white) in the GBM tumor (tdTomato^+ GL261 cells, red), Tumor margins are indicated in yellow (n=3 biologically independent samples). Scale bars, 400 μm (right), 150 μm (left). (FIGS. 11B-E) Real-time changes in the ECAR (FIGS. 11B-C) and OCR (FIGS. 11D-E) of CT-2A glioma cells, cultured in media supplemented with full serum (FCS) or lipoprotein-deprived serum (LPDS) for 18 hours and measured using Seahorse. […] Glycolysis, glycolytic capacity and glycolytic reserve are extracted from ECAR reading, and basal respiration, ATP production, Maximal respiration, and spare respiratory capacity were determined based on OCR. […] (FIGS. 11I-J) Representative immunoblot and quantification analyses comparing LDLR protein levels in with CT-2A and GL261 cells cluttered for 2 days in FCS or LPDS supplemented media. […] P values were determined by two-sided Student's t-tests (FIGS. 11B-E and 11I-K) or by one-way ANOVA, followed by Fisher's LSD post-hoc analysis (FIGS. 11G-H). *P<0.05, **P<0.01, ***P<0.001.
GL261, CT-2A, or astrocytes were seeded at a density of 1.5×10^5 cells per well in a 6-well plate. […] Microglial cell death was determined by LDH Assay (Sigma-Aldrich, #4744934001) according to the manufacturer's instructions. […]

[2] = test system: GL261 and CT-2A glioma cells; test: Cell viability assay (Annexin V/DAPI FACS) of glioma cells; format: cell-based, mouse; set-up: glioma viability: dose or concentration left out as unconfirmed; conditions: lovastatin, 3 day treatment; CT-2A and GL261; FIGS. 11G-H
Procedure: FIGS. 5A-N illustrate that astrocyte-derived cholesterol supports glioma survival. (FIGS. 5A-D) Real-time changes in the ECAR (FIGS. 5A-B) and oxygen consumption rate (OCR) (FIGS. 5C-D) of GL261 glioma cells, cultured in media supplemented with full serum (FCS, fetal calf serum) or lipoprotein-deprived serum (LPDS, Lipoprotein-deficient serum) for 18 hours and measured using Seahorse. Oligo, oligomycin; FCCP, carbonyl cyanide4-(trifluoromethoxy) phenylhydrazone; R/A, rotenone plus antimycin A; 2-DG, 2-deoxy-d-glucose. Glycolysis, glycolytic capacity and glycolytic reserve were extracted from the ECAR reading, and basal respiration, adenosine triphosphate (ATP) production, Maximal respiration, and spare respiratory capacity were determined based on OCR. Data are representative of two independent experiments (n=6 technical replicates per experiment). (FIG. 5E) Percentage of cell death of GL261 and CT-2A glioma cells, or primary astrocytes, cultured in FCS or LPDS for 5 days; as determined by Annexin-V assay (n=5 independent experiments). […] Representative flow cytometry plots of Annexin-V/DAPI staining from each group are shown in FIG. 5F and quantification analyses of cholesterol rescue are in FIG. 5G (n=5 biologically independent experiments). (FIGS. 5H-K) Representative images and quantification of LDLR expression (Immunoblot, FIGS. 5H-I) and cell death via FACS analysis of Annexin V/DAPI staining (FIGS. 5J-K) in response to endogenous LXR agonists (24-OHC) or Mock (DMSO) treatment in GL261 and CT-2A cells (n=3 biologically independent experiments). […] (FIGS. 5L-M) Representative flow cytometry plots of murine GL261 and CT-2A glioma cells co-cultured for 5 days with primary mouse astrocytes are shown in FIG. 5L and quantification analyses in FIG. 5M (n=4 biologically independent experiments). (FIG. 5N) quantification analyses of human U87EGFRvIII (U87) glioma cells co-cultured with human primary astrocytes for 5 days (n=3 biologically independent experiments). […]

[3] = summary statement on ABCA1 inhibitors, FIGS. 16A-E

Chain of cholesterol transporter ABCA1 (O95477 whole entry): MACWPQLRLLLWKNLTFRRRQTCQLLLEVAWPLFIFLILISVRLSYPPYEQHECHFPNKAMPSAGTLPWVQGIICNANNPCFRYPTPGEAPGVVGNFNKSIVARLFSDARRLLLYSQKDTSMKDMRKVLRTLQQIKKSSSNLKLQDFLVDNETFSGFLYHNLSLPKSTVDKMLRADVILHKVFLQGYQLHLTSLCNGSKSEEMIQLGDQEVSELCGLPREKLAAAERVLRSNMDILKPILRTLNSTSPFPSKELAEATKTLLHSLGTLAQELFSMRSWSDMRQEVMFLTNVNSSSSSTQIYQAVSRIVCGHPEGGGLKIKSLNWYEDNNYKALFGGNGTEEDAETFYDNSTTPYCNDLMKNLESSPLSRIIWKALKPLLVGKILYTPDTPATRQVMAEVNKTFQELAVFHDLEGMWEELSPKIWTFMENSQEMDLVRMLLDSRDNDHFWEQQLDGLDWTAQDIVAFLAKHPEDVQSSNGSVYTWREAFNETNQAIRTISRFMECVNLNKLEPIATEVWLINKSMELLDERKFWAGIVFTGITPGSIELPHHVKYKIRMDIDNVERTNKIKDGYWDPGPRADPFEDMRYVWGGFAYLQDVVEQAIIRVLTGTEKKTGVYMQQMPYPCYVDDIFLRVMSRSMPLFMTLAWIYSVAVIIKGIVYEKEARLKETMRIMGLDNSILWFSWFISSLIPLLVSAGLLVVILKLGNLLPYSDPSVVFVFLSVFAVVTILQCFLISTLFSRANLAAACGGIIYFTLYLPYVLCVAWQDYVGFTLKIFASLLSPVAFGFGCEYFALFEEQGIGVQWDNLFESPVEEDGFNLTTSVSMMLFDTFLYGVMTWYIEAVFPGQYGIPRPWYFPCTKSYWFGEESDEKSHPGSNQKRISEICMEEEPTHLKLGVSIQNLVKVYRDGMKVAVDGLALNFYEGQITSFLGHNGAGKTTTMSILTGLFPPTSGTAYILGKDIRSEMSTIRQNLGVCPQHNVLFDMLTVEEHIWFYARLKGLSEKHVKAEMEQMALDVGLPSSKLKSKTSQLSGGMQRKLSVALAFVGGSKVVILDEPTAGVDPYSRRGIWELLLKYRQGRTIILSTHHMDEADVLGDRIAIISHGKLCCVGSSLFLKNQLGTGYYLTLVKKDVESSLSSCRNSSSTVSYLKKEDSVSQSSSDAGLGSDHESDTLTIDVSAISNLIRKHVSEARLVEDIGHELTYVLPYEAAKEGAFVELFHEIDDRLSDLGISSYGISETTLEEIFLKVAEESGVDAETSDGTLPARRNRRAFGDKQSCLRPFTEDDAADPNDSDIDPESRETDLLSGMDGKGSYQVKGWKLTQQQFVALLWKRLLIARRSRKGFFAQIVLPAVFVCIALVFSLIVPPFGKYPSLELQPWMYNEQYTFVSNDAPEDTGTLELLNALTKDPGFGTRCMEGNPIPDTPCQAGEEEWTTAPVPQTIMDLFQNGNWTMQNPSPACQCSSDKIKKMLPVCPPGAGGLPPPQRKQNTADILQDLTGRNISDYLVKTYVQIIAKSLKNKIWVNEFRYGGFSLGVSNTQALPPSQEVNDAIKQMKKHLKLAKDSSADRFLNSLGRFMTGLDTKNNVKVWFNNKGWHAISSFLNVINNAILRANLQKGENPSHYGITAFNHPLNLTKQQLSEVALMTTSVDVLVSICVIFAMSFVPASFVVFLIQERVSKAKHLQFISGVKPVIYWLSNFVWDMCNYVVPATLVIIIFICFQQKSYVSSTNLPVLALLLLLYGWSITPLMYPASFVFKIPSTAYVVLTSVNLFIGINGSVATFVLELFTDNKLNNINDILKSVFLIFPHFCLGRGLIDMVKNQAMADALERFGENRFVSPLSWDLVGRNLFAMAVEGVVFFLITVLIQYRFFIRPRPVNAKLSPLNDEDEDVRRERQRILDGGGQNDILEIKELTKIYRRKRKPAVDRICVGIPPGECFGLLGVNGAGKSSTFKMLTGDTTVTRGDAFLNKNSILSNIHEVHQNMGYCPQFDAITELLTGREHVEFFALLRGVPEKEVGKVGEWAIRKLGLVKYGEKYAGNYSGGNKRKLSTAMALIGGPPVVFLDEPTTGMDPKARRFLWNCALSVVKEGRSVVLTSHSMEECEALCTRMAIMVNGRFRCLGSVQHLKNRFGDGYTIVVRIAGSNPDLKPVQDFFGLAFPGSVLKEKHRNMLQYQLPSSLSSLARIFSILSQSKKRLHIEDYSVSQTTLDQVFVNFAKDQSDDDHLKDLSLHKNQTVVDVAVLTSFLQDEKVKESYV

## CC(C)(Sc1cc(C(C)(C)C)c(O)c(C(C)(C)C)c1)Sc1cc(C(C)(C)C)c(O)c(C(C)(C)C)c1 [Probucol]
[1]
  ABCA1 inhibitor potency: strong
GL261-Luc2 glioma (GBM); probucol 30 mg/kg combined with TMZ 2.5 mg/kg, GL261-Luc2 bearing mice
  therapeutic effect (potency) of TMZ: enhances the potency of TMZ therapeutic; also recorded: dramatically enhanced the therapeutic effect of TMZ
GL261-Luc2 glioma (GBM); probucol 30 mg/kg, limited course (two days before, during and two days after TMZ course), from day 10
  GBM pathogenicity: able to halt GBM pathogenicity
GL261 glioma (GBM); GL261-bearing WT mice
  tumor growth (IVIS): attenuates GBM progression
GL261 glioma (GBM); GL261-bearing WT mice, listed as probucol
  tumor growth (IVIS): significantly attenuated
GL261 glioma (GBM); GL261-bearing WT mice, Probucol 30 mg/kg daily from day 10 vs vehicle, FIG. 16C
  weight loss associated with tumor burden: significantly attenuated
GL261 glioma (GBM); GL261-bearing WT mice, Probucol 30 mg/kg daily from day 10 vs vehicle, FIG. 16D
  survival (Kaplan-Meier): improved
GL261 glioma (GBM); [3]
  survival of subjects having GBM in-vivo: prolonging survival
  tumor size of subjects having GBM in-vivo: decreasing tumor size
  weight loss of subjects having GBM in-vivo: preventing weight loss

## CC[C@H](C)C(=O)O[C@H]1C[C@@H](C)C=C2C=C[C@H](C)[C@H](CC[C@@H]3C[C@@H](O)CC(=O)O3)[C@H]21 [lovastatin, Lovastatin]
Primary astrocytes
  cell death of primary astrocytes: significant cell death of primary astrocytes
[2]
  glioma viability: did not affect glioma viability
